Biological target: Trp operon repressor (Escherichia coli (strain K12), UniProt P0A881)
Test: Binding Assay
Description: Binding assay of L-trptophan and analogues to trp aporepressor

| Structure (SMILES) | Kd [µM] |
| --- | --- |
| c1ccc2[nH]ccc2c1 | 25.1 |
| Cn1cc(CC(N)C(=O)O)c2ccccc21 [1-Methyl-L-tryptophan, 8] | 26.4 |
| O=C(O)/C=C/c1c[nH]c2ccccc12 [3-Beta-Indole-acrylic acid (Tran), 1] | 0.516 |
| NC(Cc1c[nH]c2ccc(O)cc12)C(=O)O [5-Hydroxy-L-tryptophan, 22] | 2840 |
| COc1ccc2[nH]cc(CC(N)C(=O)O)c2c1 [5-Methoxyu-L-tryptophan, 11] | 30.7 |
| Cc1ccc2[nH]cc(CC(N)C(=O)O)c2c1 [5-Methyl-L-tryptophan, 2] | 3.25 |
| Cc1ccc2[nH]cc(CCN)c2c1 [5-Methyl-tryptamine, 10] | 28.8 |
| NC(Cc1c[nH]c2cc([N+](=O)[O-])ccc12)C(=O)O [6-Nitro-L-tryptophan, 17] | 75.6 |
| NC(Cc1c[nH]c2ncccc12)C(=O)O [7-Aza-L-tryptophan, 21] | 466 |
| O=C(O)Cc1c[nH]c2ccccc12 [Indole-3-acetic acid, 16] | 72.9 |
| O=C(O)CCCc1c[nH]c2ccccc12 [Indole-3-butyric acid, 3] | 5.51 |
| O=C(O)CCc1c[nH]c2ccccc12 [Indole-3-propionic acid, 4] | 9.74 |
| c1ccc2c(c1)CCN2 [Indoline, 19] | 174 |
| O=C(O)C(O)Cc1c[nH]c2ccccc12 [L-Indole-3-lactic acid, 13] | 35.2 |
| NC(Cc1ccccc1)C(=O)O [L-Phenylalanine, 23] | > 3000 |
| COC(=O)C(N)Cc1c[nH]c2ccccc12 [L-Tryptophan methyl ester, 14] | 37.1 |
| NC(=O)C(N)Cc1c[nH]c2ccccc12 [L-Tryptophanamide, 9] | 27.7 |
| O=CNC(Cc1c[nH]c2ccccc12)C(=O)O [N-Formyl-L-tryptophan, 18] | 117 |
| NCCc1c[nH]c2ccccc12 [Tryptamine, 15] | 41.1 |
| OCCc1c[nH]c2ccccc12 [Tryptaphol, 6] | 23.3 |

Source: BindingDB's records for PubMed 3549712 (University of Chicago, 1987)
